What all share (experiment): Receptor-binding experiment using cells expressing prostanoid receptor subtypes (3H-PGE2 binding, CHO cell membrane)
One assay has as its target T1, EP3 receptor (Mus musculus, UniProt P30557).
T1 construct: expressed in transfected cells; host or cells: CHO cells
T1 sequence (P30557 1-365): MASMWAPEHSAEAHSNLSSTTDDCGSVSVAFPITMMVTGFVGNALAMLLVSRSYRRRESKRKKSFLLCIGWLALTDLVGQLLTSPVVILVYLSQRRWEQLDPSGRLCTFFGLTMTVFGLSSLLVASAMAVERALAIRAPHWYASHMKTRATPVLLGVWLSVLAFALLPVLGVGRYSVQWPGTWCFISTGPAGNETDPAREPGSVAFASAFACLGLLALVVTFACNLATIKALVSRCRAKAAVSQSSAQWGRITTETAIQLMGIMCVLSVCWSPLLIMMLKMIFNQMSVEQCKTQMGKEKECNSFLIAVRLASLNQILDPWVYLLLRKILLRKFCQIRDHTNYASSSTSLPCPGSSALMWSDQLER
Particulars: 3H-PGE2 (2.5 nM) binding inhibition, membrane of CHO cells expressing mouse EP3; Ki=IC50/(1+([C]/Kd)). How it is done: (§1) The pharmacological activity is confirmed by the following receptor-binding experiment by using cells expressing prostanoid receptor subtypes. • (i) Receptor-binding experiment by using cells expressing prostanoid receptor subtypes In accordance with the method of Sugimoto et al. [J. Biol. Chem., 267, 6463-6466 (1992)], CHO cells respectively expressing prostanoid receptor subtypes (mouse EP1, EP2, EP3, and EP4) were prepared to give membrane preparations.
(§2) Each membrane fraction (50 μl) thus prepared and a reaction solution (150 μl) containing ^3H-PGE2 were incubated at room temperature for 1 hour. After ceasing the reaction with an ice-cooled buffer (3 ml), the bound ^3H-PGE2 was trapped in a glass filter (GF/B) by filtering with suction under reduced pressure. Then the bound radioactivity was measured with a liquid scintillator.
(§3) Kd value and Bmax value were determined by Scatchard plots [Ann. N.Y. Acad. Sci., 51, 660 (1949)]. Nonspecific bond was determined as bond in the presence of unlabeled PGE2 in excess (2.5 μM). The ^3H-PGE2-binding inhibitory effects of the invention compounds were measured by adding ^3H-PGE2 (2.5 nM) and the invention compounds at various concentrations. In every reaction, the following buffer was employed.
(§4) Buffer: potassium phosphate (10 mM, pH 6.0), EDTA (1 mM), MgCl2 (10 mM), NaCl (0.1 M).
(§5) The dissociation constant Ki (μM) of each compound was determined in accordance with the following formula. […] Ki=IC50/(1+([C]/Kd))

A further assay concerns the target T2, EP4 receptor (Mus musculus, UniProt P32240).
T2 construct: expressed in transfected cells; host or cells: CHO cells
Particulars: 3H-PGE2 (2.5 nM) binding inhibition, membrane of CHO cells expressing mouse EP4; Ki=IC50/(1+([C]/Kd)). On the procedure: as §1, §2, §3, §4, §5

The next assay concerns the target T3, EP2 receptor (Mus musculus, UniProt Q62053).
T3 construct: expressed in transfected cells; host or cells: CHO cells
Particulars: 3H-PGE2 (2.5 nM) binding inhibition, membrane of CHO cells expressing mouse EP2; Ki=IC50/(1+([C]/Kd)). On the procedure:
as §1, §2, §3, §4, §5

The next assay has as its target T4, EP1 receptor (Mus musculus, UniProt P35375).
T4 construct: expressed in transfected cells; host or cells: CHO cells
T4 sequence (P35375 1-405): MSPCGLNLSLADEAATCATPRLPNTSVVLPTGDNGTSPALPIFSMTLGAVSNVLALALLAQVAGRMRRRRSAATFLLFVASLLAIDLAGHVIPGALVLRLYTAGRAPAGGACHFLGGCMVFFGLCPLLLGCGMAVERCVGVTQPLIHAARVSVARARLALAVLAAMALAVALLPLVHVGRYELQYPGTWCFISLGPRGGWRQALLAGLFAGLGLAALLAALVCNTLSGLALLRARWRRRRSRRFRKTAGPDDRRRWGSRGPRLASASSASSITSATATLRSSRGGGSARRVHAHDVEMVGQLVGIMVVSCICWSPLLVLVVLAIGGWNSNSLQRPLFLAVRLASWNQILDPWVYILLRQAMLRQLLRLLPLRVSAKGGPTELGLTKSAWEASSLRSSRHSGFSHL
Particulars: 3H-PGE2 (2.5 nM) binding inhibition, membrane of CHO cells expressing mouse EP1; Ki=IC50/(1+([C]/Kd)). How it is done:
as §1, §2, §3, §4, §5

In patent US7786161B2, “Carboxylic acid derivatives and pharmaceutical agent comprising the same as active ingredient” (ONO Pharmaceutical Co., Ltd., priority 2001, dated 2010) one finds Ki data, which are given here for one compound.

T2 sequence (P32240 whole entry): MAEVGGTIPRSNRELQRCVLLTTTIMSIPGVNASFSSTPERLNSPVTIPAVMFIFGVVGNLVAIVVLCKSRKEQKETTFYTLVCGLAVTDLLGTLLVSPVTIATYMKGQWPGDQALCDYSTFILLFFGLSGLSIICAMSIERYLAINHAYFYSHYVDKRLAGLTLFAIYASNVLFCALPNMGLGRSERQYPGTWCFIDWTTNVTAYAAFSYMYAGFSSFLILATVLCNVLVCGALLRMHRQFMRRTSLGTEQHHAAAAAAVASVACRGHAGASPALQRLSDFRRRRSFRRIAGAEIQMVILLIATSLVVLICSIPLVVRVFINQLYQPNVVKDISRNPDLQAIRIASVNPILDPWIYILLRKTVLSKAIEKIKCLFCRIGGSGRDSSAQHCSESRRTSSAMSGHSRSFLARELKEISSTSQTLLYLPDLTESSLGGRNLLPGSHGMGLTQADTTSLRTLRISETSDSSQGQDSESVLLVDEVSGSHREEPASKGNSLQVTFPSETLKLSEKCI
T3 sequence (Q62053 whole entry): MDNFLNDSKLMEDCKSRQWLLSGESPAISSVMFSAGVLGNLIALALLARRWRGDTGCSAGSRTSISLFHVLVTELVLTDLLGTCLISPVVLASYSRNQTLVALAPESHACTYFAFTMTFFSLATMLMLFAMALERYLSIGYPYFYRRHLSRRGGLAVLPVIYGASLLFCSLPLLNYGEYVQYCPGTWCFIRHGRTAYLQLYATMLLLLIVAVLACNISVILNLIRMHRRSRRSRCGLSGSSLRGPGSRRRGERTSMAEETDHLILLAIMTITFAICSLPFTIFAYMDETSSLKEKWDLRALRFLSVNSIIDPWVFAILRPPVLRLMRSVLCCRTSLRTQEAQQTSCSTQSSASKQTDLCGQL

On to `CSCc1ccc(CCCC(=O)O)c(NC(=O)C(C)c2cccc3ccccc23)c1` (stereo not shown) [Example 8(13), 4-(2-((2-(naphthalen-1-yl)propanoyl)amino)-4-methylthiomethylphenyl)butanoic acid], for which the Ki (commonly a dissociation constant, usually derived from enzyme kinetics or from competition with a known ligand) on EP3 receptor was 270 nM; at EP4 receptor it was 38 nM; on EP2 receptor it was over 10000 nM; at EP1 receptor it was over 10000 nM.
